The values below come from paper PMC7037671, “Naphthoquinone Derivatives with Anti-Inflammatory Activity from Mangrove-Derived Endophytic Fungus Talaromyces sp. SK-S009” (Molecules, 2020).

Structures are written as SMILES. Like-named read-outs stand apart in the source and are kept apart here.

As usually defined, the CC50 is the concentration at which the toxic effect on the cells reaches its halfway point. Broadly, the IC50 is the point on the concentration scale where inhibition reaches its midpoint. What is called melting point is the temperature of the solid-liquid transition.

Series [1] in a line: Cytotoxicity / cell viability by MTT assay. The format is cell-based, murine. As to conditions: mouse, RAW 264.7 cells, MTT assay. Here is the method: (§1) The nitrite/nitrate oxidized from NO was detected by the Griess reagent as previously reported with slight modifications. The murine macrophage cell line (RAW 264.7 cells) were seeded in 96-well plates at a density of 1 × 10^5 cells/well and preincubated for 12 h. The tested compounds were dissolved in dimethylsulfoxide (DMSO) and diluted with Dulbecco’s Modified Eagle Medium (DMEM) medium to a final concentration (final DMSO concentration <0.1% in all assays). Indomethacin was used as the positive control. Cells were stimulated with 1µg/mL of lipopolysaccharide (LPS, Sigma, St. Louis, MO, USA) with or without tested compounds for 24 h. Then culture supernatant was mixed with an equal volume of Griess reagent I and II (Beyotime, Shanghai, China), and measured at 540 nm using a microplate reader (Bio-Rad Laboratories, Inc., Kyoto, Japan). Cell viability was evaluated using MTT assay.
(In general: Formazan colour is commonly taken as a measure of viable cells.)

The test system of another series is RAW 264.7 cells. Kind of series: Cytotoxicity / cell viability by MTT assay. Format: cell-based, murine. Particulars: CC50 (MTT) / IC50 (NO production). Here is the method:
as §1

Series [2] has as its system LPS-induced NO production in the murine macrophage cell line (RAW 264.7 cells). Kind of series: Inhibition of LPS-induced NO production (Griess reagent). The format is cell-based. Particulars: Mus musculus, read-out: IC50 against LPS-induced NO production. Here is the method: as §1
For series [3], the system named is tumor necrosis factor (TNF)-α mRNA. Put plainly: Real-time PCR, TNF-α mRNA expression in LPS-stimulated RAW 264.7 cells. The format is cell-based, murine. How it is done:
(§2) Figure 4 RAW 264.7 murine macrophage cells were pre-incubated for 12h, and then cells were pretreated with compound 9 at the indicated concentration for 1 h and incubated with LPS (1 μg/mL) for 12h (real-time PCR). The effect of compound 9 on the mRNA expressions of inducible nitric oxide synthase (iNOS) (A), cyclooxygenase-2 (COX-2)(B), tumor necrosis factor (TNF)-α (C), interleukin (IL)-6 (D), and IL-1β (E) were detected by real-time PCR. The data represent the mean values ± SD of three experiments, * p < 0.05, ** p < 0.01 compared to LPS-treated group.
(§3) RAW264.7 cells were placed in a 6-well plate at a density of 1 × 10^6 cells/well and incubated for 12 h. Cultured cells were pretreated with compound 9 (1, 2, 4 μM/L) for 1 h and incubated with LPS (1 μg/mL) for 12 h. RNA was extracted with Trizol Reagent (Takara Bio Inc., Otsu, Japan) according to the manufacturer’s instructions, and cDNA was reverse transcribed from total RNA using a Superscript III system (Takara Bio Inc., Otsu, Japan). PCR amplification was carried out using PikoReal™ (Thermo Fisher Scientific, MA, US) and specific primers. The optimal conditions for PCR amplification of the cDNA were established by following the manufacturer’s instructions. Relative gene expression was calculated using the comparative Ct method (2^−ΔΔCt) with glyceraldehyde-3-phosphate dehydrogenase (GAPDH) as an internal control. […]
(In general: Real-time PCR tracks product formation cycle by cycle.)

For a further series, the system named is IL-6 mRNA. Kind of series: Real-time PCR, IL-6 mRNA expression in LPS-stimulated RAW 264.7 cells. The format is cell-based, murine. How it is done:
as §2, §3

Series [4] relates to inducible nitric oxide synthase (iNOS) mRNA. Put plainly: Real-time PCR, iNOS mRNA expression in LPS-stimulated RAW 264.7 cells. Format: cell-based, murine. As to conditions: LPS (1 μg/mL) 12 h, 1 h pretreatment, 1, 2, 4 μM, RT-PCR. Here is the method: as §2, §3
A further series has as its system interleukin (IL)-1β mRNA. Put plainly: Real-time PCR, IL-1β mRNA expression in LPS-stimulated RAW 264.7 cells. Format: cell-based, murine. How it is done:
as §2, §3

Series [5] has as its system cyclooxygenase-2 (COX-2) mRNA. Kind of series: Real-time PCR, COX-2 mRNA expression in LPS-stimulated RAW 264.7 cells. Format: cell-based, murine. Particulars: LPS (1 μg/mL) 12 h, 1 h pretreatment, 1, 2, 4 μM, RT-PCR. How it is done:
as §2, §3

[6] abbreviates: RAW 264.7 macrophage cells, means ± SD, n = 3, read-out: CC50.
Where [7] appears, read: RAW264.7, RAW 264.7 cells, LPS 1 µg/mL, 24 h, means ± SD, n = 3.
[8] abbreviates: RAW 264.7 macrophage cells, tested at 50 μM, read-out: CC50 (cytotoxicity, class symbol).
[9] abbreviates: 2.0 μM, compared with the control groups.
[10] abbreviates: LPS (1 μg/mL) 12 h, 1 h pretreatment, 1, 2, 4 μM, RT-PCR.

As for `COc1cc(O)c2c(c1)C(=O)C(C[C@H](C)O)=C(C)C2=O` [Compound 1, Talanaphthoquinone A], the CC50 at 24 h in [1] (setting [6]) was determined as 30.7 ± 0.5 µM. For the same compound, the “SI (selectivity index, CC50/IC50)” value in the series with RAW 264.7 cells came out at 7.9. The IC50 in series [2] (setting [7]) is 3.9 ± 0.5 µM.

`COC1=CC(=O)c2c(O)c(C)c3c(c2C1=O)OC(CO)C3` (stereo not shown) [Compound 2, Talanaphthoquinone B] had a melting point of 157.7 to 159.3 °C. Further, in series [1] (setting [8]), the CC50 at 24 h was over 50 µM. The IC50 in series [2] (setting [7]) worked out at 49.7 ± 1.5 µM.

As for `COC1=CC(=O)c2c(O)c(C)c3c(c2C1=O)OC(C)C3` (stereo not shown) [Compound 3, anhydrojavanicin], in series [1] (tested at 50 μM, read-out: CC50 (cytotoxicity, class symbol)), the CC50 at 24 h is over 50 µM. For the same compound, the IC50 in series [2] (setting [7]) was 16 ± 0.2 µM.

`COC1=CC(=O)c2c(O)c(CO)c3c(c2C1=O)OC(C)C3` (stereo not shown) [Compound 4, 2,3-dihydro-5-hydroxy-4-hydroxymethyl-8-methoxy-2-methylnaphtho[1,2-b]furan-6,9-dione]: the CC50 at 24 h in series [1] (setting [8]) is over 50 µM. Besides, the IC50 in series [2] (setting [7]) turned out to be 22.6 ± 0.5 µM.

`COC1=CC(=O)c2c(O)c(C)c3cc(C)oc3c2C1=O` [Compound 5, anhydrojavanicin]: the CC50 at 24 h in [1] (setting [8]) was over 50 µM. Moreover, the IC50 in series [2] (setting [7]) came out at 11.2 ± 0.3 µM.

On to `COC1=CC(=O)c2c(O)c3c(c(O)c2C1=O)C=C(C)OC3` [Compound 6, anhydrofusarubin], for which the CC50 at 24 h in series [1] (setting [8]) was over 50 µM. The IC50 in series [2] (RAW264.7, 24 h) is 5.2 ± 0.1 µM.

As for `CCc1c(OC)cc2c(c1O)C(=O)C=C(OC)C2=O` [Compound 8, 6-ethyl-2,7-dimethoxyjuglone], the CC50 at 24 h in series [1] (setting [8]) was over 50 µM. The IC50 in series [2] (setting [7]) turned out to be 7.7 ± 0.3 µM.

As for `COC1=CC(=O)c2c(cc(OC)c(C(C)OC(C)=O)c2O)C1=O` (stereo not shown) [Compound 9, 6-[1-(acetyloxy)ethyl]-5-hydroxy-2,7-dimethoxy-1,4-naphthalenedione], the CC50 at 24 h in [1] (setting [6]) amounted to 50.3 ± 1.5 µM. Moreover, the “SI (selectivity index, CC50/IC50)” value in the series with RAW 264.7 cells came out at 29.6. Also, the “inhibition of TNF-α mRNA expression” value in series [3] (setting [9]) was “about 80%”. Moreover, the “effect on TNF-α mRNA expression” value in series [3] (setting [10]) is reported as “apparently reduced”. For the same compound, the “inhibition of IL-6 mRNA expression” value in the series on IL-6 mRNA (setting [9]) is recorded as “about 80%”. Also, the “effect on IL-6 mRNA expression” value in the series on IL-6 mRNA (setting [10]) is “apparently reduced”. In addition, in series [4], the “effect on iNOS mRNA expression” value is “apparently reduced”. Also, the IC50 in series [2] (setting [7]) worked out at 1.7 ± 0.2 µM. The “inhibition of IL-1β mRNA expression” value with interleukin (IL)-1β mRNA (setting [9]) is given as “about 80%”. The “effect on IL-1β mRNA expression” value with interleukin (IL)-1β mRNA (setting [10]) is recorded as “apparently reduced”. Besides, the “effect on COX-2 mRNA expression” value in [5] is given as “apparently reduced”.

With `COC1=CC(=O)c2c(cc(OC)c(C(C)O)c2O)C1=O` (stereo not shown) [Compound 10, 5-hydroxy-6-(1-hydroxyethyl)-2,7-dimethoxy-1,4-naphthalenedione], the CC50 at 24 h in [1] (setting [6]) amounted to 15.8 ± 0.4 µM. For the same compound, in the series on RAW 264.7 cells, the “SI (selectivity index, CC50/IC50)” value came out at 2.1. In series [2] (setting [7]), the IC50 was 7.5 ± 0.2 µM.

As to `COC1=CC(=O)c2c(O)c(C)c(CC(C)O)c(O)c2C1=O` (stereo not shown) [Compound 11, solaniol], the CC50 at 24 h in series [1] (means ± SD, n = 3, read-out: CC50) came to 59.2 ± 1.5 µM. In addition, the “SI (selectivity index, CC50/IC50)” value in the series on RAW 264.7 cells is reported as 3.8. Moreover, the IC50 in [2] (setting [7]) was 15.5 ± 0.6 µM.

As for `COC1=CC(=O)c2c(O)c(C)c(CC(C)=O)c(O)c2C1=O` [Compound 12, javanicin], in series [1] (setting [6]), the CC50 at 24 h came out at 48.4 ± 1.3 µM. Besides, the “SI (selectivity index, CC50/IC50)” value in the series with RAW 264.7 cells was found to be 8.6. In addition, the IC50 in series [2] (setting [7]) amounted to 5.6 ± 0.3 µM.

`COc1ccc2c(c1)c(CC(=O)O)c(C)n2C(=O)c1ccc(Cl)cc1` [Indomethacin, reference compound]: the IC50 in series [2] (setting [7]) is 26.3 ± 0.6 µM.
